Literature values as cited in patent publication US20180303793A1, “METHODS AND COMPOSITIONS FOR TREATING TRAUMATIC BRAIN INJURY” (SCYTHIAN BIOSCIENCES INC., priority 2015, published 2018).

Details: single agent

## CCCCCCC(C)(C)c1cc(O)c2c(c1)OC(C)(C)[C@H]1CC=C(CO)C[C@H]21 [dexanabinol, 7-hydroxy-delta6-tetrahydrocannabinol 1,1-dimethylheptyl]
One prior study
  intracranial pressure: lowered intracranial pressure
Other prior studies
  gliosis and the subsequent immune cascade: did not inhibit gliosis
